According to US10028966B2 (Avalyn Pharma Inc., priority 2014, dated 2018):
Converted amounts (≈) assume the structure as drawn. Read-outs that look alike come from different tables or passages of the source.

Legend:
[1] = in vivo; cited from earlier work
[2] = Stability assessment of pirfenidone formulations at 25°C/60% RH and 40°C/75% RH; type: physicochemical; settings: for Measured Pirfenidone / mOsmol/kg / pH: time zero
CYP2C9 = target: T1, CYP2C9 (Homo sapiens, UniProt P11712); settings: hepatic microsomes; cited from earlier work
T1 construct: In vitro metabolism studies with hepatic microsomes; from tissue; host or cells: hepatic microsomes
T1 sequence (P11712 whole entry): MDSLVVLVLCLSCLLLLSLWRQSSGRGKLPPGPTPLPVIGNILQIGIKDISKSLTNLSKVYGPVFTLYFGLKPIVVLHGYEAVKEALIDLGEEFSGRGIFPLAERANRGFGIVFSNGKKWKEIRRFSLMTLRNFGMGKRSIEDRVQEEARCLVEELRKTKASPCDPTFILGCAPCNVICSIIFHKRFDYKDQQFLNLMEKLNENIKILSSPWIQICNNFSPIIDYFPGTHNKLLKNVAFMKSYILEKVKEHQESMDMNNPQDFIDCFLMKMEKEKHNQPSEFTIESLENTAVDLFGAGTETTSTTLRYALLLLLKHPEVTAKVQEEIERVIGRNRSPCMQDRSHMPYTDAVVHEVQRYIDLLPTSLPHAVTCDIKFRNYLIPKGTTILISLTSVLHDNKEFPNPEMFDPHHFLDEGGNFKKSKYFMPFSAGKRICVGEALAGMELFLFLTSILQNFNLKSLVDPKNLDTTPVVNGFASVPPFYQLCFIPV

[3] = 85% saturation pirfenidone formulations exposed to several temperatures (re-crystallization); type: physicochemical
Excerpt: However, in all cases pirfenidone eventually re-crystallized. This re-crystallization was not inhibited by pre-filtration of the sample.

[4] = Pharmacokinetics and lung-tissue distribution after oral gavage or intratracheal aerosol; type: in vivo, Sprague-Dawley rats; settings: for half-life: po, 70 mg/kg
Protocol: Solutions were vortexed until all crystals dissolved. […] Plasma samples were taken at pre-dose, 0.08, 0.16, 0.25, 0.5, 0.75, 1.0, 1.5, 2, 4, and 6 hours post dosing. For lung tissue samples, eight additional rats were also dosed 70 mg/kg by the oral route. Lungs were taken at pre-dose 0.08, 0.5, 2, and 4 hours post dosing. Materials were extracted and pirfenidone quantitated as μg/mL plasma and μg/gram lung tissue. […]

[5] = test system: normal human pulmonary fibroblasts; assay: TGFβ1-induced fibroblast differentiation; type: cell-based; settings: for IC50: Homo sapiens, Pulmonary fibroblast, read-out: IC50, TGFβ-induced fibroblast differentiation; for αSMA (Fluorescence): TGFβ +
Protocol: Briefly, 20 000 cells per well were seeded in black 96 well collagen coated plates and incubate overnight (approximately 24 hours) to allow adherence. […] Cultures were then incubated for 48 hours. […] Separate controls were included for diluted cultures containing TGFβ1 or media alone. At the end of incubation, cells were fixed and stained for imaging and fluorescence plate reader quantitation. Parallel cultures were assessed for cytotoxicity using the MTS dye assay.

2C19 = target: T2, 2C19 (Homo sapiens, UniProt P33261); settings: hepatic microsomes; cited from earlier work
T2 construct: In vitro metabolism studies with hepatic microsomes; from tissue; host or cells: hepatic microsomes
T2 sequence (P33261 whole entry): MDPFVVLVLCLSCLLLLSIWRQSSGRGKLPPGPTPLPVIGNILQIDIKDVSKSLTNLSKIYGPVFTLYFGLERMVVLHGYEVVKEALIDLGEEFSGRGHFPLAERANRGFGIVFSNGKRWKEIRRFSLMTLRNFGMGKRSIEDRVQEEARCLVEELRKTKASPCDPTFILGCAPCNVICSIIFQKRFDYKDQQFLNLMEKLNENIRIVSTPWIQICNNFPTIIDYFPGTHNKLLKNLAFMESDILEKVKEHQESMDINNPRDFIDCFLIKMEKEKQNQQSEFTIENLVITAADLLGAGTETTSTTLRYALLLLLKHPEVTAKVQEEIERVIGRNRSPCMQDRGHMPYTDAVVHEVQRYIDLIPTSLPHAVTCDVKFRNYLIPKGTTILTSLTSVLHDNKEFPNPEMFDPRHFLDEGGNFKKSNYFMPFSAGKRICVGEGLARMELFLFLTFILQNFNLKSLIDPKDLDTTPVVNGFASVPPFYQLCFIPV

[6] = 25° C./60% RH, target 1 mg/mL, 5 mM phosphate buffer pH 6.5 plus 1% (v/v) EtOH, 2% (v/v) PG
[7] = 25° C./60% RH, target 1 mg/mL, 5 mM phosphate buffer pH 6.5 plus 8% (v/v) EtOH, 16% (v/v) PG
[8] = 25° C./60% RH, target 15 mg/mL, 5 mM phosphate buffer pH 6.5 plus 1% (v/v) EtOH, 2% (v/v) PG
[9] = 25° C./60% RH, target 23 mg/mL, 5 mM phosphate buffer pH 6.5 plus 4% (v/v) EtOH, 8% (v/v) PG
[10] = 25° C./60% RH, target 30 mg/mL, 5 mM phosphate buffer pH 6.5 plus 6% (v/v) EtOH, 12% (v/v) PG
[11] = 25° C./60% RH, target 38 mg/mL, 5 mM phosphate buffer pH 6.5 plus 8% (v/v) EtOH, 16% (v/v) PG
[12] = 40° C./75% RH, target 1 mg/mL, 5 mM phosphate buffer pH 6.5 plus 1% (v/v) EtOH, 2% (v/v) PG
[13] = 40° C./75% RH, target 1 mg/mL, 5 mM phosphate buffer pH 6.5 plus 8% (v/v) EtOH, 16% (v/v) PG
[14] = 40° C./75% RH, target 15 mg/mL, 5 mM phosphate buffer pH 6.5 plus 1% (v/v) EtOH, 2% (v/v) PG
[15] = 40° C./75% RH, target 23 mg/mL, 5 mM phosphate buffer pH 6.5 plus 4% (v/v) EtOH, 8% (v/v) PG
[16] = 40° C./75% RH, target 30 mg/mL, 5 mM phosphate buffer pH 6.5 plus 6% (v/v) EtOH, 12% (v/v) PG
[17] = 40° C./75% RH, target 38 mg/mL, 5 mM phosphate buffer pH 6.5 plus 8% (v/v) EtOH, 16% (v/v) PG
[18] = target 1 mg/mL, 5 mM phosphate buffer pH 6.5 plus 1% (v/v) EtOH, 2% (v/v) PG
[19] = target 1 mg/mL, 5 mM phosphate buffer pH 6.5 plus 8% (v/v) EtOH, 16% (v/v) PG
[20] = target 15 mg/mL, 5 mM phosphate buffer pH 6.5 plus 1% (v/v) EtOH, 2% (v/v) PG
[21] = target 23 mg/mL, 5 mM phosphate buffer pH 6.5 plus 4% (v/v) EtOH, 8% (v/v) PG
[22] = target 30 mg/mL, 5 mM phosphate buffer pH 6.5 plus 6% (v/v) EtOH, 12% (v/v) PG
[23] = target 38 mg/mL, 5 mM phosphate buffer pH 6.5 plus 8% (v/v) EtOH, 16% (v/v) PG

Compound: Cc1ccc(=O)n(-c2ccccc2)c1 [pirfenidone, 5-methyl-1-phenyl-2-(1H)-pyridone]
- administered pirfenidone excreted in the urine [1]: about 80%
- Pirfenidone at Time = 0 [2, 6]: 1.0 mg/mL
- Pirfenidone at Time = 1 month [2, 6]: 1.0 mg/mL
- Pirfenidone at Time = 3 month [2, 6]: 1.0 mg/mL
- Pirfenidone at Time = 6 month [2, 6]: 1.0 mg/mL
- Pirfenidone at Time = 0 [2, 7]: 1.0 mg/mL
- Pirfenidone at Time = 1 month [2, 7]: 1.0 mg/mL
- Pirfenidone at Time = 3 month [2, 7]: 1.0 mg/mL
- Pirfenidone at Time = 6 month [2, 7]: 1.0 mg/mL
- Pirfenidone at Time = 0 [2, 8]: 16.1 mg/mL
- Pirfenidone at Time = 1 month [2, 8]: 15.1 mg/mL
- Pirfenidone at Time = 3 month [2, 8]: 14.9 mg/mL
- Pirfenidone at Time = 6 month [2, 8]: 15.4 mg/mL
- Pirfenidone at Time = 0 [2, 9]: 24.1 mg/mL
- Pirfenidone at Time = 1 month [2, 9]: 22.1 mg/mL
- Pirfenidone at Time = 3 month [2, 9]: 22.3 mg/mL
- Pirfenidone at Time = 6 month [2, 9]: 23.2 mg/mL
- Pirfenidone at Time = 0 [2, 10]: 30.3 mg/mL
- Pirfenidone at Time = 1 month [2, 10]: 30.1 mg/mL
- Pirfenidone at Time = 3 month [2, 10]: 29.6 mg/mL
- Pirfenidone at Time = 6 month [2, 10]: 31.0 mg/mL
- Pirfenidone at Time = 0 [2, 11]: 38.9 mg/mL
- Pirfenidone at Time = 1 month [2, 11]: 38.3 mg/mL
- Pirfenidone at Time = 3 month [2, 11]: 38.0 mg/mL
- Pirfenidone at Time = 6 month [2, 11]: 39.2 mg/mL
- Pirfenidone at Time = 0 [2, 12]: 1.0 mg/mL
- Pirfenidone at Time = 1 month [2, 12]: 1.0 mg/mL
- Pirfenidone at Time = 3 month [2, 12]: 1.0 mg/mL
- Pirfenidone at Time = 6 month [2, 12]: 1.0 mg/mL
- Pirfenidone at Time = 0 [2, 13]: 1.0 mg/mL
- Pirfenidone at Time = 1 month [2, 13]: 1.0 mg/mL
- Pirfenidone at Time = 3 month [2, 13]: 1.0 mg/mL
- Pirfenidone at Time = 6 month [2, 13]: 1.0 mg/mL
- Pirfenidone at Time = 0 [2, 14]: 16.1 mg/mL
- Pirfenidone at Time = 1 month [2, 14]: 15.1 mg/mL
- Pirfenidone at Time = 3 month [2, 14]: 14.8 mg/mL
- Pirfenidone at Time = 6 month [2, 14]: 15.5 mg/mL
- Pirfenidone at Time = 0 [2, 15]: 24.1 mg/mL
- Pirfenidone at Time = 1 month [2, 15]: 22.4 mg/mL
- Pirfenidone at Time = 3 month [2, 15]: 22.1 mg/mL
- Pirfenidone at Time = 6 month [2, 15]: 23.3 mg/mL
- Pirfenidone at Time = 0 [2, 16]: 30.3 mg/mL
- Pirfenidone at Time = 1 month [2, 16]: 30.3 mg/mL
- Pirfenidone at Time = 3 month [2, 16]: 30.0 mg/mL
- Pirfenidone at Time = 6 month [2, 16]: 31.1 mg/mL
- Pirfenidone at Time = 0 [2, 17]: 38.9 mg/mL
- Pirfenidone at Time = 1 month [2, 17]: 38.4 mg/mL
- Pirfenidone at Time = 3 month [2, 17]: 38.0 mg/mL
- Pirfenidone at Time = 6 month [2, 17]: 37.9 mg/mL
- Measured Pirfenidone [2, 18]: 1.0 mg/mL
- mOsmol/kg [2, 18]: 452 mOsmol/kg
- pH [2, 18]: 6.69
- Measured Pirfenidone [2, 19]: 1.0 mg/mL
- mOsmol/kg [2, 19]: 3590 mOsmol/kg
- pH [2, 19]: 6.98
- Measured Pirfenidone [2, 20]: 16.1 mg/mL
- mOsmol/kg [2, 20]: 512 mOsmol/kg
- pH [2, 20]: 6.65
- Measured Pirfenidone [2, 21]: 24.1 mg/mL
- pH [2, 21]: 6.78
- Measured Pirfenidone [2, 22]: 30.3 mg/mL
- mOsmol/kg [2, 22]: 2863 mOsmol/kg
- pH [2, 22]: 6.90
- Measured Pirfenidone [2, 23]: 38.9 mg/mL
- mOsmol/kg [2, 23]: 3750 mOsmol/kg
- pH [2, 23]: 7.04
- contribution to pirfenidone metabolism (CYP2C9): less than 13%
- Recrystallization upon storage ([3]; overnight at 4° C., 23.0 mg/mL (85% saturation), 4% EtOH, 8% PG, 88% phosphate buffer (5 mM), pH 6.6): No
- Recrystallization upon storage ([3]; overnight at 4° C., 29.5 mg/mL, 6% EtOH, 12% PG, 82% phosphate buffer (5 mM), pH 7.0): No
- Recrystallization upon storage ([3]; overnight at 4° C., […], 8% EtOH, 16% PG, 76% phosphate buffer (5 mM), pH 7.0): No
- Recrystallization upon storage ([3]; overnight at 15° C., 23.0 mg/mL (85% saturation), 4% EtOH, 8% PG, 88% phosphate buffer (5 mM), pH 6.6): No
- Recrystallization upon storage ([3]; overnight at 15° C., 29.5 mg/mL, 6% EtOH, 12% PG, 82% phosphate buffer (5 mM), pH 7.0): No
- Recrystallization upon storage ([3]; overnight at 15° C., […], 8% EtOH, 16% PG, 76% phosphate buffer (5 mM), pH 7.0): No
- Recrystallization upon storage ([3]; overnight at 25° C., 23.0 mg/mL (85% saturation), 4% EtOH, 8% PG, 88% phosphate buffer (5 mM), pH 6.6): No
- Recrystallization upon storage ([3]; overnight at 25° C., 27.2 mg/mL (saturation solubility), 4% EtOH, 8% PG, 88% phosphate buffer (5 mM), pH 6.6): Yes
- Recrystallization upon storage ([3]; overnight at 25° C., 29.5 mg/mL, 6% EtOH, 12% PG, 82% phosphate buffer (5 mM), pH 7.0): No
- Recrystallization upon storage ([3]; overnight at 25° C., 34.7 mg/mL, 6% EtOH, 12% PG, 82% phosphate buffer (5 mM), pH 7.0): Yes
- Recrystallization upon storage ([3]; overnight at 25° C., 43.7 mg/mL, 8% EtOH, 16% PG, 76% phosphate buffer (5 mM), pH 7.0): Yes
- Recrystallization upon storage ([3]; overnight at 25° C., […], 8% EtOH, 16% PG, 76% phosphate buffer (5 mM), pH 7.0): No
- Recrystallization upon storage ([3]; overnight at −20° C., 23.0 mg/mL (85% saturation), 4% EtOH, 8% PG, 88% phosphate buffer (5 mM), pH 6.6, crystals re-dissolved at 25° C. without agitation): Yes^f
- Recrystallization upon storage ([3]; overnight at −20° C., 29.5 mg/mL, 6% EtOH, 12% PG, 82% phosphate buffer (5 mM), pH 7.0, crystals re-dissolved at 25° C. without agitation): Yes^f
- Recrystallization upon storage ([3]; overnight at −20° C., […], 8% EtOH, 16% PG, 76% phosphate buffer (5 mM), pH 7.0, crystals re-dissolved at 25° C. without agitation): Yes^f
- half-life ([4]; Sprague-Dawley, rat, lung, read-out: Lung T1/2 α (only α observed)): 45 min
- half-life ([4]; Sprague-Dawley, rat, plasma, read-out: Plasma T1/2): 30 min
- Cmax ([4]; Sprague-Dawley, rat, plasma, oral 70 mg/kg): 8100 ng/mL
- AUC(0-t) ([4]; Sprague-Dawley, rat, plasma, oral 70 mg/kg, read-out: Plasma AUC0-6 hrs): 13500 ng·h/mL
- Lung Cmax ([4]; oral 70 mg/kg): 3.6 µg/g
- Lung TOE, time of exposure over 1 μg/g lung tissue ([4]; oral 70 mg/kg): 89 min
- IC50 ([5]; 48 h): ~25 µg/mL (≈ 135 µM)
- IC50 [5]: ~125 µg/mL (≈ 675 µM)
- αSMA (Fluorescence) ([5]; Table 36, Long-term exposure (48 hours), pirfenidone 5 mcg/mL): 4.72
- αSMA (Fluorescence) ([5]; Table 36, Long-term exposure (48 hours), pirfenidone 25 mcg/mL): 4.04
- αSMA (Fluorescence) ([5]; Table 36, Long-term exposure (48 hours), pirfenidone 125 mcg/mL): 3.15
- αSMA (Fluorescence) ([5]; Table 36, Long-term exposure (48 hours), pirfenidone 625 mcg/mL): 2.47
- αSMA (Fluorescence) ([5]; Table 36, Short-term exposure, pirfenidone 5 mcg/mL): 6.76
- αSMA (Fluorescence) ([5]; Table 36, Short-term exposure, pirfenidone 25 mcg/mL): 5.34
- αSMA (Fluorescence) ([5]; Table 36, Short-term exposure, pirfenidone 625 mcg/mL): 3.57
- αSMA (Fluorescence) ([5]; Table 37 (broader dose-response), Short-term exposure, pirfenidone 1 mcg/mL): 7.65
- αSMA (Fluorescence) ([5]; Table 37 (broader dose-response), Short-term exposure, pirfenidone 10 mcg/mL): 7.75
- αSMA (Fluorescence) ([5]; Table 37 (broader dose-response), Short-term exposure, pirfenidone 100 mcg/mL): 5.61
- αSMA (Fluorescence) ([5]; Table 37 (broader dose-response), Short-term exposure, pirfenidone 1000 mcg/mL): 2.27
- contribution to pirfenidone metabolism (2C19): less than 13%
